Data on 13 molecules can be found in ChEMBL document CHEMBL1201862, “PubChem BioAssay data set” (2004).

Several values for one entry are separate records, joined by “and”; a condition that tells them apart may be missing. Identical values can stand only once.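 Assay format: 96-well plates, 48-hour exposure. GI50 marks 50% less growth.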 Activity calls are given as the source filed them. No stated cut-off is given here; in the data, active = GI50 up to about 1.1 µM and inactive = higher. A value given as a limit tells only on which side of the number the result lay.

Test in all cases: inhibition of tumour cell growth, NCI panel, 48 h
The subject of assay [1] is SK-MEL-2.
Assay [2] relates to 786-0.
For assay [3], the system named is UO-31.
For assay [4], the system named is UACC-257.
The test system of assay [5] is OVCAR-8.
Assay [6] relates to A498.
For assay [7], the system named is KM12.
The subject of assay [8] is ACHN.
The test system of assay [9] is NCI/ADR-RES.
Assay [10] has as its system RPMI-8226.
The subject of assay [11] is CAKI-1.
Assay [12] relates to PC-3.
Assay [13] deals with OVCAR-4.
Assay [14] relates to HCT-116.
The test system of assay [15] is UACC-62.
Assay [16] concerns HT-29.
Assay [17] relates to SR.
Assay [18] concerns SNB-75.
Assay [19] has as its system Hs-578T.

`Cc1ccccc1C1OC1C(=O)c1ccccc1N` (stereo not drawn): the GI50 in assay [1] was 43.3 µM (inactive); in assay [2], 59.4 µM (inactive); in assay [3] it was 78.7 µM (inactive); in [4], 74.3 µM (inactive); in [5] it was > 100 µM (inactive); in assay [6], > 100 µM (inactive). The GI50 in [7] was 39.7 µM (inactive); in assay [8], > 100 µM (inactive); in assay [9], 51.3 µM (inactive); in assay [10] it was 46.7 µM (inactive); in assay [11], 45.8 µM (inactive); in assay [12] it was 46.6 µM (inactive). Also, the GI50 in assay [13] was 47.5 µM (inactive); in [14] it was 44.1 µM (inactive); in assay [15], 52.8 µM (inactive); in assay [16] it was 45.3 µM (inactive); in [17], > 100 µM (inactive).

Take `COc1ccc(C2Oc3c(OC)cc(CCCO)cc3C2CO)cc1OC` (stereo not drawn): the GI50 in [18] is > 100 µM (inactive) and 77.3 µM (inactive); in assay [1] it was 95.1 µM (inactive); in assay [2] it was > 100 µM (inactive); in [5], > 100 µM (inactive) and 89.3 µM (inactive); in assay [7], > 100 µM (inactive) and 79.3 µM (inactive); in assay [19], > 100 µM (inactive). For the same molecule, the GI50 is > 100 µM (inactive) and 76.6 µM (inactive) in assay [8]; 69 µM (inactive) in assay [9]; > 100 µM (inactive) in assay [12]; > 100 µM (inactive) in assay [13]; > 100 µM (inactive) in [14]; 54.6 µM (inactive) and 83.9 µM (inactive) in assay [15]. Moreover, in [16], the GI50 is > 100 µM (inactive).

As to `CC1(C)OC(CCO)CN1C(=O)OCc1ccccc1` (stereo not drawn), the GI50 in assay [18] is 92 µM (inactive); in [1] it was > 100 µM (inactive); in assay [2], > 100 µM (inactive); in [3], > 100 µM (inactive); in [4], > 100 µM (inactive); in assay [5], > 100 µM (inactive). Moreover, the GI50 in [6], in assay [7], in assay [8], in assay [9], in assay [10] and in [11] was > 100 µM (inactive) in each case. Also, the GI50 in assay [12], in [13], in [14], in assay [15] and in assay [17] was > 100 µM (inactive) throughout.

Turning to `Brc1ccc2c(c1)-c1nc3c(cc1CC2)CCc1ccc(Br)cc1-3`, the GI50 in assay [18], in assay [1], in assay [2], in [3], in [4] and in [5] was > 100 µM (inactive) each time. In addition, the GI50 was > 100 µM (inactive) in [6]; > 100 µM (inactive) in assay [7]; > 100 µM (inactive) in [8]; > 100 µM (inactive) in assay [9]; 0.637 µM (active) in assay [10]; > 100 µM (inactive) in [11]. For the same molecule, the GI50 in [12], in [13] and in assay [14] was > 100 µM (inactive) in each case.

Take `CCC(=O)NC(Nc1cc(C)on1)(C(F)(F)F)C(F)(F)F`: the GI50 was > 100 µM (inactive) in assay [18]; > 100 µM (inactive) in assay [1]; > 100 µM (inactive) in [2]; 97.9 µM (inactive) in assay [3]; > 100 µM (inactive) in assay [4]; > 100 µM (inactive) in [5]. Moreover, the GI50 in assay [6], in assay [7], in [19], in assay [8], in assay [9] and in assay [10] was > 100 µM (inactive) each time. Moreover, the GI50 in assay [11], in assay [14], in [15], in assay [16] and in [17] was > 100 µM (inactive) throughout.

Regarding `N#Cc1nc(/C=C/c2cccs2)oc1N`, the GI50 is > 100 µM (inactive) in [18]; > 100 µM (inactive) in assay [1]; > 100 µM (inactive) in [2]; 10.4 µM (inactive) in [3]; > 100 µM (inactive) in assay [4]; > 100 µM (inactive) in [5]. For the same molecule, the GI50 is > 100 µM (inactive) in assay [6]; > 100 µM (inactive) in assay [7]; > 100 µM (inactive) in assay [19]; 76.9 µM (inactive) in assay [8]; 27.8 µM (inactive) in [10]; 65.3 µM (inactive) in assay [11]. In addition, the GI50 is 97.1 µM (inactive) in [12]; > 100 µM (inactive) in assay [14]; > 100 µM (inactive) in assay [15]; > 100 µM (inactive) in assay [16]; 13.1 µM (inactive) in assay [17].

For the molecule `O=c1[nH]cc(NCCCl)c(=O)[nH]1`, the GI50 in [18], in assay [1], in assay [2], in [3], in assay [4] and in [5] was > 100 µM (inactive) in each case. Further, the GI50 in assay [6], in assay [7], in [8], in [9], in [10] and in assay [11] was > 100 µM (inactive) each time. For the same molecule, the GI50 in [12], in [13], in assay [14], in assay [15] and in assay [16] was > 100 µM (inactive) in each case.

`Cc1cc(C)c(N[S+]([O-])c2cccc([N+](=O)[O-])c2)c(C)c1` (stereo not drawn): the GI50 in assay [2], in assay [3], in assay [4], in assay [5], in [6] and in [7] was > 100 µM (inactive) throughout. For the same molecule, the GI50 in assay [8], in assay [9], in [10], in assay [12], in [16] and in assay [17] was > 100 µM (inactive) each time.

In the case of `CC1C2CC(CC2N)C1(C)C` (stereo not drawn), the GI50 in assay [18], in [2], in assay [3], in assay [4], in assay [5] and in assay [6] was > 100 µM (inactive) each time. Also, the GI50 in assay [7], in [19], in [8], in [11], in assay [12] and in assay [13] was > 100 µM (inactive) throughout. Further, the GI50 in assay [14], in assay [15], in assay [16] and in assay [17] was > 100 µM (inactive) in each case.

Consider `CCN(CC)CCCNC(=O)c1cc2cc(NC(=O)c3cc4cc([N+](=O)[O-])ccc4[nH]3)ccc2[nH]1`, for which the GI50 in assay [18] is > 100 µM (inactive); in [1] it was > 100 µM (inactive); in assay [2] it was 40.8 µM (inactive); in [3], > 100 µM (inactive); in assay [4] it was 29.9 µM (inactive); in assay [5], > 100 µM (inactive). The GI50 is 27.4 µM (inactive) in assay [6]; 7.21 µM (inactive) in assay [7]; > 100 µM (inactive) in [8]; > 100 µM (inactive) in assay [9]; 16.9 µM (inactive) in [10]; > 100 µM (inactive) in [11]. In addition, the GI50 in [12] is > 100 µM (inactive); in assay [13], > 100 µM (inactive); in [14], > 100 µM (inactive); in assay [15], 32.8 µM (inactive); in assay [16], 35 µM (inactive); in [17], > 100 µM (inactive).

For `O=C1Nc2cccc(Cl)c2/C1=C\c1cccnc1`, the GI50 in assay [18] was 15.5 µM (inactive); in assay [1], 11.1 µM (inactive); in [2] it was 7.43 µM (inactive); in [3], 5.16 µM (inactive); in assay [4] it was 5.06 µM (inactive); in [5], 4.33 µM (inactive). Also, the GI50 in assay [6] was 21 µM (inactive); in assay [7], 5.96 µM (inactive); in [19] it was 14.2 µM (inactive); in assay [8], 10.8 µM (inactive); in assay [9], 4.43 µM (inactive); in assay [11] it was 10.2 µM (inactive). Also, the GI50 is 14.8 µM (inactive) in assay [12], 12.7 µM (inactive) in assay [13], 3.16 µM (inactive) in [14] and 5.92 µM (inactive) in [16].

Take `NC1=NS(=O)(=O)Nc2nc(-c3ccc(Cl)cc3)c(-c3ccc(Cl)cc3)nc21`: the GI50 in assay [18], in assay [2], in assay [3], in assay [4], in assay [5] and in assay [7] was > 100 µM (inactive) in each case. Further, the GI50 in assay [8], in assay [11], in assay [13], in assay [14], in assay [15] and in assay [16] was > 100 µM (inactive) each time. For the same molecule, the GI50 in [17] was > 100 µM (inactive).

`CCN(CC)CCCCC1CCN(CC(=O)N2c3ccccc3NC(=O)c3ccccc32)CC1`: the GI50 in assay [18] is > 100 µM (inactive); in assay [1] it was > 100 µM (inactive); in assay [2], > 100 µM (inactive); in assay [3], > 100 µM (inactive); in assay [4], 48.1 µM (inactive); in assay [5], > 100 µM (inactive). Besides, the GI50 in [6], in assay [7], in assay [10], in assay [11], in [13] and in assay [14] was > 100 µM (inactive) in each case. Moreover, the GI50 in [15] was > 100 µM (inactive); in assay [16] it was 46.7 µM (inactive); in assay [17], > 100 µM (inactive).
